Assays:
Format in all cases: physicochemical
[1] = HPPA-Na2 solubility in valeraldehyde/valeraldehyde trimers/1-butene at 70° C., filtrate quantified by ion chromatography (Examples 4-6); conditions: two hours
Procedure: (§1) Valeraldehyde was freshly distilled under reduced pressure prior to use. Valeraldehyde trimers were obtained by vacuum distillation of a commercial catalyst recycle sample. The distillate was determined to be a mixture of 75% valeraldehyde trimers and 25% valeraldehyde dimers by gas chromatography and mass spectrometry (GC/MS). A portion of both valeraldehyde and valeraldehyde trimers was saturated with water, and then blended with freshly distilled material to provide solutions of varying water levels. Unless otherwise noted, all water concentrations were determined by Karl-Fischer titration.
One small portion (130-160 mg) of the disodium salt of hydroxypentylphosphonic acid (HPPA-Na2) was charged to each of three, 3 oz glass pressure vessels. Valeraldehyde, valeraldehyde trimers and 1-butene were then added via syringe and the resulting mixtures (which contained various levels of water) were stirred vigorously at 70° C. for two hours. Samples were then removed at temperature, quickly filtered, and the filtrate was twice extracted with water to facilitate the quantization of HPPA-Na2 solubility by ion chromatography.
The solutions of Examples 4-6 were intended to model actual hydroformylation solution conditions.

[2] = Observation of HPPA-Na2 in anhydrous valeraldehyde at room temperature (Comparative Example 1); conditions: 15 mg in anhydrous valeraldehyde (3.52 g; 0.0961 wt % water), two hours
Procedure: One small portion (15 mg) of a disodium salt of hydroxypentylphosphonic acid (HPPA-Na2) was charged to a 20 ml glass vial under nitrogen. Anhydrous valeraldehyde (3.52 g; 0.0961 wt % water) was added and the resulting mixture was stirred at room temperature.

[3] = Solubility properties of HPPA-Na2 under simulated hydroformylation reaction conditions with incremental water addition (Example 7)
Procedure: A small portion (67 mg) of the disodium salt of hydroxypentylphosphonic acid (HPPA-Na2) was charged to a 3 oz glass pressure vessel. A 2:1 mixture of valeraldehyde and valeraldehyde trimers (4.07 g) was added, and stirring was initiated at room temperature. Butene-1 (1.22 g) was added via syringe, and the tube was placed in an oil bath at 70° C. Additional water was slowly added to determine solubility properties under simulated hydroformylation reaction conditions. Total water content is based on the initial water level (determined by K—F titration) plus the incremental water additions made throughout.

[4] = Observation of HPPA-Na2 in valeraldehyde/valeraldehyde trimers (2:1) and 1-butene, stirred at room temperature for two hours (Examples 1-3)
Procedure: as §1
One small portion (70 mg) of a disodium salt of hydroxypentylphosphonic acid (HPPA-Na2) was charged to each of three, 3 oz glass pressure vessels. Valeraldehyde, valeraldehyde trimers (2:1 weight ratio) and 1-butene were then added via syringe and stirred at room temperature for two hours.

With `CCCCC(O)P(=O)([O-])[O-].[Na+].[Na+]` (centres unmarked) [HPPA-Na2, disodium salt of hydroxypentylphosphonic acid] the HPPA-Na2 solubility ([1]; Ex. 4, Val. 52.0 wt %, Val Trimer 26.0 wt %, 1-butene 21.2 wt %, Water 0.103 wt %) was 4.8 ppm, the Description ([1]; Ex. 4, Water 0.103 wt %) was “Hazy watery” and the HPPA-Na2 solubility ([1]; Ex. 5, Val. 52.1 wt %, Val Trimer 26.0 wt %, 1-butene 21.1 wt %, Water 0.380 wt %) was 15.5 ppm. For the same compound, the Description ([1]; Ex. 5, Water 0.380 wt %) was “Very hazy”, the HPPA-Na2 solubility ([1]; Ex. 6, Val. 52.7 wt %, Val Trimer 26.4 wt %, 1-butene 20.8 wt %, Water 0.860 wt %) was 21.3 ppm and the Description ([1]; Ex. 6, Water 0.860 wt %) was “Solid gel”. For the same compound, the “Appearance of the solids after stirring” value [2] was “the solids remained free-flowing, suspended particulates”, the Result ([3]; 22 ° C., water content 0.86 %, additive 1.22 g 1-butene) was “No change” and the Result ([3]; 22 ° C., water content 0.86 %, additives None) was “Opaque with sticky, gelatinous”. The Result ([3]; 70 ° C., water content 0.86 %, additives None) was “No change”, the Result ([3]; 70 ° C., water content 3.19 %, additive 0.1 mL water) was “No change” and the Result ([3]; 70 ° C., water content 5.54 %, additive 0.1 mL water) was “Less turbid”. For the same compound, the Result ([3]; 70 ° C., water content 7.72 %, additive 0.1 mL water) was “Much less turbid; solids gone”, the Result ([3]; 70 ° C., water content 9.8 %, additive 0.1 mL water) was “Clear solution” and the Observations ([4]; Example 1, val/val trimer 8.42 g, 1-butene 2.41 g, Water 0.29 %) was “Voluminous, gelatinous”. For the same compound, the Observations ([4]; Example 2, val/val trimer 8.94 g, 1-butene 2.26 g, Water 0.87 %) was “Mixture of gel and sticky” and the Observations ([4]; Example 3, val/val trimer 8.97 g, 1-butene 2.22 g, Water 1.47 %) was “Sticky material on glass”.

— patent US8884072B2, “Mitigation of fouling in hydroformylation processes by water addition” (Dow Technology Investments LLC, priority 2010, dated 2014)
